Laboratory results taken from US8268862B2, “Sirtuin modulating compounds” (Sirtris Pharmaceuticals, Inc., priority 2007, dated 2012).

Molecular target: T1, SIRT1 (Homo sapiens, UniProt Q96EB6)
T1 sequence (Q96EB6 1-747): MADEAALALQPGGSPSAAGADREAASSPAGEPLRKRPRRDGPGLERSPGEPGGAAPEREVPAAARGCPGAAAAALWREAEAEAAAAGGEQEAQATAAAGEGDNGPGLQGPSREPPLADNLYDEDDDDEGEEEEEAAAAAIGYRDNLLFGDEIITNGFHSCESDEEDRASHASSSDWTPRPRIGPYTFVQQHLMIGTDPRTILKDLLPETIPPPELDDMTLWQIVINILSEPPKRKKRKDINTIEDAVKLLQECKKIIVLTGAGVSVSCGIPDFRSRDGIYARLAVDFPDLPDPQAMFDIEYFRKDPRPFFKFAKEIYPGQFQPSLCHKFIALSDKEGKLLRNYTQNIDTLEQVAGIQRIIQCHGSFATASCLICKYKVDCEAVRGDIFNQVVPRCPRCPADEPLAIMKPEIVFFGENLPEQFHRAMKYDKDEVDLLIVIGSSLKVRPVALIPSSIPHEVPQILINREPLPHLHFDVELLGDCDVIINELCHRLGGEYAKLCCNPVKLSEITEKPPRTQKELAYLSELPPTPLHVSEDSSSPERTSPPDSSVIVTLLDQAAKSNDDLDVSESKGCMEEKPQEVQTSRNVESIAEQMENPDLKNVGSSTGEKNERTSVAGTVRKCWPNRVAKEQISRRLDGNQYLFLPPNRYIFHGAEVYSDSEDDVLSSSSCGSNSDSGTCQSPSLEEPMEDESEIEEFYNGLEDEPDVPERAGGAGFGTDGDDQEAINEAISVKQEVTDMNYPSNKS
Experiment: mass spectrometry based SIRT1 deacetylation assay (activation)
Assay type: biochemical
Conditions: 0.5 μM peptide substrate, 120 μM βNAD+, 10 nM SIRT1, 25 min at 25° C.; for EC1.5 (concentration of test compound that results in 150% activation of SIRT1): NA = not active in the assay; for Emax: read-out: % FOLD ACT. (percent maximum fold activation of SIRT1)

Row | Structure (SMILES) | EC1.5 (concentration of test compound that results in 150% activation of SIRT1) [NM] | Emax [%]
1 | COCCN1CCN(Cc2cnc3sc(-c4ccccc4NC(=O)c4ccn(-c5ccccc5)n4)nc3c2)CC1 [Compound 155] | 141 | 364
2 | O=C(Nc1ccccc1-c1nc2cc(CN3CCNCC3)cnc2s1)c1cccc(-n2cccn2)c1 [Compound 44] | 397 | 603
3 | O=C(Nc1ccccc1-c1nc2cc(CN3CC[C@@H](O)C3)cnc2s1)c1ccc2ccccc2n1 [Compound 104] | 200 | 221
4 | COCCN1CCN(Cc2cnc3sc(-c4ccccc4NC(=O)c4cccc(-c5ccc(F)cc5F)n4)nc3c2)CC1 [Compound 142] | 394 | 378
5 | O=C(Nc1ccccc1-c1nc2cc(Cn3ccnc3)cnc2s1)c1ccc2ccccc2n1 [Compound 94] | 150 | 182
6 | COCCN1CCN(Cc2cnc3sc(-c4ccccc4NC(=O)c4cccc(-c5cccc(Cl)c5)n4)nc3c2)CC1 [Compound 138] | 88 | 497
7 | COCCN1CCN(Cc2cnc3sc(-c4ccccc4NC(=O)c4cccc(-c5cccc(F)c5F)n4)nc3c2)CC1 [Compound 146] | 127 | 500
8 | Cc1nc(-c2cccnc2)sc1C(=O)Nc1ccccc1-c1nc2cc(CN3C[C@@H](C)N[C@@H](C)C3)cnc2s1 [Compound 81] |  | 131
9 | Cc1nc(-c2cccc(C(=O)Nc3ccccc3-c3nc4cc(CN5CC[C@@H](F)C5)cnc4s3)c2)cs1 [Compound 32] | 815 | 162
10 | [2H]c1c([2H])c([2H])c(-c2cccc(C(=O)Nc3ccccc3-c3nc4cc(CN5CCCC5)cnc4s3)c2)c([2H])c1[2H] [Compound 147] | 845 | 224
11 | COCCN1CCN(Cc2cnc3sc(-c4ccccc4NC(=O)c4cccc(-c5ccccn5)c4)nc3c2)CC1 [Compound 34] | 281 | 492
12 | C[C@@H]1CN(Cc2cnc3sc(-c4ccccc4NC(=O)c4cccc(-c5ccccc5)c4)nc3c2)C[C@H](C)N1 [Compound 24] | 94 | 299
13 | COCCN1CCN(Cc2cnc3sc(-c4ccccc4NC(=O)c4cccc(-c5cccc(C#N)c5)n4)nc3c2)CC1 [Compound 148] | 40 | 500
14 | O=C(Nc1ccccc1-c1nc2cc(CN[C@H]3CCNC3)cnc2s1)c1ccc2ccccc2n1 [Compound 120] | 820 | > 500
15 | COCCN1CCN(Cc2cnc3sc(-c4ccccc4NC(=O)c4cccc(-c5cccnc5)c4)nc3c2)CC1 [Compound 58] | 884 | 370
16 | O=C(Nc1ccccc1-c1nc2cc(CNC3CCNCC3)cnc2s1)c1ccc2ccccc2n1 [Compound 116] | 270 | > 500
17 | COCCN1CCN(Cc2cnc3sc(-c4ccccc4NC(=O)c4cccc(-c5ccc(C(F)(F)F)cc5)n4)nc3c2)CC1 [Compound 136] | 448 | 461
18 | O=C(Nc1ccccc1-c1nc2cc(CN3CC[C@@H](F)C3)cnc2s1)c1cccc(-n2cnnn2)c1 [Compound 84] | 4270 | 166
19 | O=C(Nc1ccccc1-c1nc2cc(CN3CC[C@@H](F)C3)cnc2s1)c1cccc(-n2cccn2)c1 [Compound 43] | 215 | 236
20 | O=C(Nc1ccccc1-c1nc2cc(CN3CC[C@@H](F)C3)cnc2s1)c1cccc(-c2cccnc2)c1 [Compound 27] | 913 | 185
21 | O=C(Nc1ccccc1-c1nc2cc(CN3CC[C@@H](F)C3)cnc2s1)c1cccc(-c2ncccn2)c1 [Compound 31] | 1000 | 168

Other lines, results leading:

Row | EC1.5 (concentration of test compound that results in 150% activation of SIRT1) [NM] | Emax [%] | Structure (SMILES)
22 | 69840 | 189 | O=C(Nc1ccccc1-c1nc2cc(CN3CCOCC3)cnc2s1)c1cnc2ccccc2c1 [Compound 106]
23 | 260 | > 500 | O=C(Nc1ccccc1-c1nc2cc(CN3CCNCC3)cnc2s1)c1ccc2ccccc2n1 [Compound 64]
24 | 620 | 457 | NC1CCN(Cc2cnc3sc(-c4ccccc4NC(=O)c4cccc(-c5cccnc5)c4)nc3c2)CC1 [Compound 18]
25 | 955 | 166 | COCCN1CCN(Cc2cnc3sc(-c4ccccc4NC(=O)c4cc(-c5ccccc5)ncn4)nc3c2)CC1 [Compound 87]
26 | 321 | > 500 | COCCN1CCN(Cc2cnc3sc(-c4ccccc4NC(=O)c4cc(-c5ccccc5)n[nH]4)nc3c2)CC1 [Compound 152]
27 | 3020 | 186 | O=C(Nc1ccccc1-c1nc2cc(CN3CCOCC3)cnc2s1)c1cccc2ccccc12 [Compound 97]
28 | 91 | 533 | COCCN1CCN(Cc2cnc3sc(-c4ccccc4NC(=O)c4cccc(-c5ccccc5)c4)nc3c2)CC1 [Compound 33]
29 | 458 | 389 | COCCN1CCN(Cc2cnc3sc(-c4ccccc4NC(=O)c4ccnc(-c5ccccc5)c4)nc3c2)CC1 [Compound 56]
30 | 504 | 321 | O=C(Nc1ccccc1-c1nc2cc(CN3CCOCC3)cnc2s1)c1cccc(-c2ccccn2)c1 [Compound 4]
31 |  | 100 | O=C(Nc1ccccc1-c1nc2cc(CN3CCOCC3)cnc2s1)c1ccnc(-c2ccccc2)n1 [Compound 72]
32 | 503 | 446 | Cc1nc(-c2cccc(C(=O)Nc3ccccc3-c3nc4cc(CN5CCNCC5)cnc4s3)c2)cs1 [Compound 46]
33 | 400 | 241 | Cc1nc(-c2cccc(C(=O)Nc3ccccc3-c3nc4cc(CN5CCOCC5)cnc4s3)c2)cs1 [Compound 39]
34 | 74 | > 500 | O=C(Nc1ccccc1-c1nc2cc(CN3CCOCC3)cnc2s1)c1cccc(-c2ccccc2)n1 [Compound 55]
35 |  | 132 | O=C(Nc1ccccc1-c1nc2cc(CN3CCOCC3)cnc2s1)c1cc(-c2ccccc2)no1 [Compound 2]
36 | 687 | 224 | O=C(Nc1ccccc1-c1nc2cc(CN3CCCC3)cnc2s1)c1cccc(-c2ccccn2)c1 [Compound 20]
37 | 455 | 192 | O=C(Nc1ccccc1-c1nc2cc(CN3CC[C@@H](F)C3)cnc2s1)c1cccc(-c2ccccn2)c1 [Compound 26]
38 | 2970 | 183 | O=C(Nc1ccccc1-c1nc2cc(CN3CCNCC3)cnc2s1)c1ccnc(-c2ccccc2)n1 [Compound 73]
39 | 106 | 500 | COCCN1CCN(Cc2cnc3sc(-c4ccccc4NC(=O)c4cc(C)nc(-c5ccccc5)n4)nc3c2)CC1 [Compound 131]
40 | 1060 | 162 | O=C(Nc1ccccc1-c1nc2cc(CN3CCOCC3)cnc2s1)c1ccc2ccccc2c1 [Compound 96]
